Experimental data taken from PMC4509514, “Saccharomyces cerevisiae Ski7 Is a GTP-Binding Protein Adopting the Characteristic Conformation of Active Translational GTPases” (Structure(London, England:1993), 2015).

Target: T1, Ski7C (Saccharomyces cerevisiae, UniProt Q08491)
T1 construct: gene SKI7; C-terminal GTPase-like region, residues 254-747; N-terminal thioredoxin tag cut with PreScission; expressed in E. coli BL21; one molecule per asymmetric unit (SeMet form for phasing)
T1 sequence (Q08491 254-747): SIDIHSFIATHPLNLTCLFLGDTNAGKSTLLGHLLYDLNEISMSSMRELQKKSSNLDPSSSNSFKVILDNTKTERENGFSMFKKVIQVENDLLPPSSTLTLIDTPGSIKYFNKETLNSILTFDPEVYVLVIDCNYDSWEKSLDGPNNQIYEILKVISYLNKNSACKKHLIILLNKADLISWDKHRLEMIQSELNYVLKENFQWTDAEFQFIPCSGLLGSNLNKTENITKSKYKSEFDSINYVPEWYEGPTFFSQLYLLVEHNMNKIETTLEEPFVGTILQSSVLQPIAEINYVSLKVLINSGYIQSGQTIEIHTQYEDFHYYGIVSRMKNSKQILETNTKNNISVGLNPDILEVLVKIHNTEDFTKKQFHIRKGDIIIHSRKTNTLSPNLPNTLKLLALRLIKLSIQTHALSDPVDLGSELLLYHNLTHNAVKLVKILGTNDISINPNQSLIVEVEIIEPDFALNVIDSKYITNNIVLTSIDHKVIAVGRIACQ
Assay: thermal shift (Thermofluor)
Assay type: binding
Conditions: nucleotide analog added during alkaline phosphatase treatment; nucleotide-free protein as reference

| Compound | Tm [°C] |
| --- | --- |
| Nc1nc2c(ncn2[C@@H]2O[C@H](COP(=O)(O)OP(=O)(O)NP(=O)(O)O)[C@@H](O)[C@H]2O)c(=O)[nH]1 [GMPPNP] | 47.6 |
| Nc1nc2c(ncn2[C@@H]2O[C@H](COP(=O)(O)CP(=O)(O)O)[C@@H](O)[C@H]2O)c(=O)[nH]1 [GMPCP] | 44.0 |
